The source made the active and inactive calls.
Experiments:
[1] = Anti-IgM induced B cell proliferation of mouse primary lymphocytes. [Related pubchem assays: 1266, 1299, 1269, 1373, 1292, 1290, 1302, 1371, 1283, 1270, 1295, 1271, 1375, 1294, 1287, 1374, 1281, 1293, 1291, 1289, 1280, 465, 1368, 1364, 1282, 1372, 1369, 1370, 1367, 1366 ]; type: functional, cell-based
[2] = target: Protein kinase C theta type (Homo sapiens, UniProt Q04759); test: In Vitro Kinase Assay Using Purified Enzyme PKC-theta. [Related pubchem assays: 1299, 1270, 1295, 1375, 1287, 1281, 1293, 1291, 1289, 1280, 465, 1364, 1282, 1372, 1365, 1370, 1367, 1366, 1266, 1269, 1373, 1292, 1290, 1302, 1371, 1271, 1294, 1374, 1368, 1369 ]
Protein kinase C theta type, sequence (Q04759 whole entry): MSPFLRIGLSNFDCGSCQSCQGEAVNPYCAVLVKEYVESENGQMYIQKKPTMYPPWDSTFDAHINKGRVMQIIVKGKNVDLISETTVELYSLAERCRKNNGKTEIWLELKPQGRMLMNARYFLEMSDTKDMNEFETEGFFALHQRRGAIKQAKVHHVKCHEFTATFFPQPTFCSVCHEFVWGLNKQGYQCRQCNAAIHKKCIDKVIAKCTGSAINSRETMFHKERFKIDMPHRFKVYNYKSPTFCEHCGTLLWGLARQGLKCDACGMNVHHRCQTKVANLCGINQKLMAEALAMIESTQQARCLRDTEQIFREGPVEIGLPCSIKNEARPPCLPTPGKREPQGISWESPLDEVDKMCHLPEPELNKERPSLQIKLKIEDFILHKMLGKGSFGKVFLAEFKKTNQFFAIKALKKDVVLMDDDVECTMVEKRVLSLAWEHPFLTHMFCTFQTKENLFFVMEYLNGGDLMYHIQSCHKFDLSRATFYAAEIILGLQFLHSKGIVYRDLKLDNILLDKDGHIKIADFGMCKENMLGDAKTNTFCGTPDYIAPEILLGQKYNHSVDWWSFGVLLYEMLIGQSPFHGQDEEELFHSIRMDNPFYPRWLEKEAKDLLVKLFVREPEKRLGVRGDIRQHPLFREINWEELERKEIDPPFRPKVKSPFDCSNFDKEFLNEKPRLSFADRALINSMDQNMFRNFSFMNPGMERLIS

MCF7 [3] = test: Cytotoxicity assay in MCF7 cells. [Related pubchem assays (depositor defined):AID1266, AID1269, AID1270, AID1271, AID1280, AID1281, AID1282, AID1283, AID1287, AID1289, AID1290, AID1291, AID1292, AID1293, AID1294, AID1295, AID1299, AID1302, AID1364, AID1365, AID1366, AID1367, AID1368, AID1369, AID1370, AID1371, AID1372, AID1374, AID1375, AID1384 …; type: functional, cell-based; conditions: Homo sapiens
[4] = target: Inhibitor of nuclear factor kappa-B kinase subunit beta (Homo sapiens, UniProt O14920); test: In Vitro Kinase Assay Using Purified Enzyme IKK-beta. [Related pubchem assays: 1266, 1299, 1269, 1373, 1292, 1290, 1302, 1371, 1283, 1270, 1295, 1271, 1375, 1294, 1287, 1374, 1281, 1293, 1291, 1289, 1280, 465, 1368, 1364, 1372, 1365, 1369, 1370, 1367, 1366 ]
Inhibitor of nuclear factor kappa-B kinase subunit beta, sequence (O14920 whole entry): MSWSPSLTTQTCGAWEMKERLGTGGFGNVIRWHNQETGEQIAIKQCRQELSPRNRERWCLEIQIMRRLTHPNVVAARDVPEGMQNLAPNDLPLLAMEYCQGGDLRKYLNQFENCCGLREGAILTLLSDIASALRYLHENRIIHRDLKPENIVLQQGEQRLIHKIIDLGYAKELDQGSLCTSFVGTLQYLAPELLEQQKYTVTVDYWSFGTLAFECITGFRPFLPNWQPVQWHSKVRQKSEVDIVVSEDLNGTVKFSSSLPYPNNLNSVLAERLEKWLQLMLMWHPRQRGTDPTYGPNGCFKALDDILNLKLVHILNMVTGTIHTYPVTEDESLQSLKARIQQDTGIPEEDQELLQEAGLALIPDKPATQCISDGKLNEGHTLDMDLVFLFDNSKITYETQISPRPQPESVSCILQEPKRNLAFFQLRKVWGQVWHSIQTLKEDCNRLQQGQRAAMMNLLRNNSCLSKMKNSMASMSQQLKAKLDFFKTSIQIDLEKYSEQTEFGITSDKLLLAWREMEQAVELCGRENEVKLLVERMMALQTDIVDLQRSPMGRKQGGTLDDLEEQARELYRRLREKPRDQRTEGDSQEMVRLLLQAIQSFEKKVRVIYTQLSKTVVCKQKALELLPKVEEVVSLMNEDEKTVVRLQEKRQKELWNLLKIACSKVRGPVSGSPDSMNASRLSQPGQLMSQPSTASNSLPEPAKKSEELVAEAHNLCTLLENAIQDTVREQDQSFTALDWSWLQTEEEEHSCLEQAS

HEK293 [5] = test: PMA/Ionomycin induced NF-kB luciferase assay in 293- NF-kB-Luc stable cells. [Related pubchem assays: 1299, 1270, 1295, 1375, 1287, 1281, 1293, 1291, 1289, 1280, 465, 1364, 1282, 1372, 1365, 1370, 1367, 1366, 1269, 1373, 1292, 1290, 1302, 1371, 1283, 1271, 1294, 1374, 1368, 1369 ]; type: functional, cell-based; conditions: Homo sapiens
[6] = target: Luciferin 4-monooxygenase (Photinus pyralis, UniProt P08659); test: In vitro luciferase assay using purified luciferase. [Related pubchem assays: 1299, 1270, 1295, 1375, 1287, 1281, 1293, 1291, 1289, 1280, 465, 1364, 1282, 1372, 1365, 1370, 1367, 1366, 1266, 1373, 1292, 1290, 1302, 1371, 1283, 1271, 1294, 1374, 1368, 1369 ]
Luciferin 4-monooxygenase, sequence (P08659 whole entry): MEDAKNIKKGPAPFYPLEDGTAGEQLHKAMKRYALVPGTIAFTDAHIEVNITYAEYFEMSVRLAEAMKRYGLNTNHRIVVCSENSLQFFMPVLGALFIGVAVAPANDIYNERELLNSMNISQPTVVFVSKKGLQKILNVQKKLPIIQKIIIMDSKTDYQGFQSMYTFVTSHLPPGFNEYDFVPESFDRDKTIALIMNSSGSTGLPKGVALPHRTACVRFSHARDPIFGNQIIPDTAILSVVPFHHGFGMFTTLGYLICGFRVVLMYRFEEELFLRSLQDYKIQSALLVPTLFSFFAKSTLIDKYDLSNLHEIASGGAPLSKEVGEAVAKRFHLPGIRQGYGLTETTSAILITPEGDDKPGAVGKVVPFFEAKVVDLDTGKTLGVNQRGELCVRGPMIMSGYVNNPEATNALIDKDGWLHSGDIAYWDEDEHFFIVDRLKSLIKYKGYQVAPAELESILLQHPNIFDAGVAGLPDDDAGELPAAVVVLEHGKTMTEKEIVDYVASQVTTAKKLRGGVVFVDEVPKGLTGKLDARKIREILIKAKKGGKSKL

MCF7 [7] = test: GM-Tri-DAP induced IL-8 production in MCF-7/NOD1 cells. [Related pubchem assays (depositor defined):AID1266, AID1269, AID1270, AID1271, AID1280, AID1281, AID1282, AID1283, AID1287, AID1289, AID1290, AID1291, AID1292, AID1293, AID1294, AID1295, AID1299, AID1302, AID1364, AID1365, AID1366, AID1367, AID1368, AID1369, AID1371, AID1372, AID1373 …; type: functional, cell-based; conditions: Homo sapiens
[8] = target: Protein kinase C beta type (Homo sapiens, UniProt P05771); test: In Vitro Kinase Assay Using Purified Enzyme PKC-beta. [Related pubchem assays: 1299, 1270, 1295, 1375, 1287, 1281, 1293, 1291, 1289, 465, 1364, 1282, 1372, 1365, 1370, 1367, 1366, 1266, 1269, 1373, 1292, 1290, 1302, 1371, 1283, 1271, 1294, 1374, 1368, 1369 ]
Protein kinase C beta type, sequence (P05771 whole entry): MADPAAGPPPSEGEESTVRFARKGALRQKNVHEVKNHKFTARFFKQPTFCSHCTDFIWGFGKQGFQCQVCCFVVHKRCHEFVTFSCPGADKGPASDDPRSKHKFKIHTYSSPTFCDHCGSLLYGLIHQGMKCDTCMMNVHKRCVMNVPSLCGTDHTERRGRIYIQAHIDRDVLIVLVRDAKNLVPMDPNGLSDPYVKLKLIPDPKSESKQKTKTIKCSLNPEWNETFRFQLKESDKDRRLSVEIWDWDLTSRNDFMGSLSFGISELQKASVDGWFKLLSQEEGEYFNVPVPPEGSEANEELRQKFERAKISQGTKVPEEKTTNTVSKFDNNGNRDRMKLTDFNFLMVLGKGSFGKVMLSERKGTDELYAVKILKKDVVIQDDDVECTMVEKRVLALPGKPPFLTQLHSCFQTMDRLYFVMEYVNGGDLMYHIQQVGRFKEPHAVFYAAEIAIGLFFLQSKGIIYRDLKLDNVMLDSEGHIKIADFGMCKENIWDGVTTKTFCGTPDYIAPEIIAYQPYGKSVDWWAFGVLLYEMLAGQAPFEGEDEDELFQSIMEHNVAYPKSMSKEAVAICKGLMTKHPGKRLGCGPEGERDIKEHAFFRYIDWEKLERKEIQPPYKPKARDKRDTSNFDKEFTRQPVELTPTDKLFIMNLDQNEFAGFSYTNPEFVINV

Jurkat [9] = test: IL-2 Production Assay in Jurkat T-cells Stimulated with anti-CD3/anti-CD28 antibodies. [Related pubchem assays: 1299, 1270, 1295, 1375, 1287, 1281, 1293, 1291, 1289, 1280, 465, 1364, 1282, 1372, 1365, 1370, 1367, 1366, 1266, 1269, 1373, 1292, 1290, 1302, 1371, 1283, 1294, 1374, 1368, 1369 ]; type: functional, cell-based; conditions: Homo sapiens
MCF7 [10] = test: PMA/Ionomycin induced NF-kB luciferase in MCF7 cells. [Related pubchem assays (depositor defined):AID1266, AID1269, AID1270, AID1271, AID1280, AID1281, AID1282, AID1283, AID1287, AID1289, AID1290, AID1291, AID1292, AID1293, AID1294, AID1295, AID1299, AID1302, AID1364, AID1365, AID1367, AID1368, AID1369, AID1370, AID1371, AID1372, AID1373, AID1374 …; type: functional, cell-based; conditions: Homo sapiens
HEK293 [11] = test: PMA/Ionomycin-induced IL-8 production in HEK293- NF-kB-Luc stable cells. [Related pubchem assays: 1299, 1295, 1375, 1287, 1281, 1293, 1291, 1289, 1280, 465, 1364, 1282, 1372, 1365, 1367, 1366, 1266, 1269, 1373, 1292, 1290, 1302, 1371, 1283, 1271, 1294, 1374, 1368, 1369 ]; type: functional, cell-based; conditions: Homo sapiens
Jurkat [12] = test: Cytotoxicity assay in Jurkat T cells. [Related pubchem assays (depositor defined):AID1266, AID1269, AID1270, AID1271, AID1280, AID1281, AID1282, AID1283, AID1287, AID1289, AID1290, AID1291, AID1292, AID1293, AID1294, AID1295, AID1299, AID1302, AID1364, AID1365, AID1366, AID1368, AID1369, AID1370, AID1371, AID1372, AID1373, AID1374, AID1375 …; type: functional, cell-based; conditions: Homo sapiens
PPC-1 = test: PMA/Ionomycin induced NF-kB luciferase in PPC-1 cells. [Related pubchem assays (depositor defined):AID1266, AID1269, AID1270, AID1271, AID1280, AID1281, AID1282, AID1283, AID1287, AID1289, AID1290, AID1291, AID1292, AID1293, AID1294, AID1295, AID1299, AID1302, AID1364, AID1365, AID1366, AID1367, AID1368, AID1369, AID1370, AID1371, AID1372, AID1373 …; type: functional, cell-based; conditions: Homo sapiens
HeLa [13] = test: Cytotoxicity Assay in HeLa Cells. [Related pubchem assays: 1299, 1270, 1295, 1375, 1287, 1281, 1293, 1291, 1289, 1280, 465, 1364, 1282, 1372, 1365, 1370, 1367, 1366, 1266, 1269, 1373, 1292, 1290, 1371, 1283, 1271, 1294, 1374, 1368, 1369 ]; type: functional, cell-based; conditions: Homo sapiens
[14] = Anti-cd3/cd28 induced T cell proliferation of mouse primary lymphocytes. [Related pubchem assays: 1299, 1270, 1295, 1375, 1287, 1281, 1293, 1291, 1289, 1280, 465, 1282, 1372, 1365, 1370, 1367, 1366, 1266, 1269, 1373, 1292, 1290, 1302, 1371, 1283, 1271, 1294, 1374, 1368, 1369 ]; type: functional, cell-based
HEK293 [15] = test: Cytotoxicity assay in HEK293 cells. [Related pubchem assays (depositor defined):AID1266, AID1269, AID1270, AID1271, AID1280, AID1281, AID1282, AID1283, AID1287, AID1289, AID1290, AID1291, AID1292, AID1293, AID1294, AID1295, AID1299, AID1302, AID1364, AID1365, AID1366, AID1367, AID1369, AID1370, AID1371, AID1372, AID1373, AID1374, AID1375, AID1384 …; type: functional, cell-based; conditions: Homo sapiens
HeLa [16] = test: PMA/Ionomycin induced NF-kB luciferase in HeLa cells. [Related pubchem assays (depositor defined):AID1266, AID1269, AID1270, AID1271, AID1280, AID1281, AID1282, AID1283, AID1287, AID1289, AID1290, AID1291, AID1292, AID1293, AID1294, AID1295, AID1299, AID1302, AID1364, AID1365, AID1366, AID1367, AID1368, AID1369, AID1370, AID1371, AID1372, AID1373 …; type: functional, cell-based; conditions: Homo sapiens
THP-1 = test: LPS induced NF-kB in THP.1 cells. [Related pubchem assays (depositor defined):AID1266, AID1269, AID1270, AID1271, AID1280, AID1281, AID1282, AID1283, AID1287, AID1289, AID1290, AID1291, AID1292, AID1293, AID1294, AID1295, AID1299, AID1302, AID1364, AID1365, AID1366, AID1367, AID1368, AID1370, AID1371, AID1372, AID1373, AID1374, AID1375, AID1384 …; type: functional, cell-based; conditions: Homo sapiens
HEK293 [17] = test: TNF Induced NF-kB Luciferase in 293-NF-kB-Luc Stable Cells. [Related pubchem assays: 1266, 1299, 1269, 1373, 1292, 1290, 1302, 1371, 1283, 1270, 1295, 1271, 1375, 1294, 1374, 1281, 1293, 1291, 1289, 1280, 465, 1368, 1364, 1282, 1372, 1365, 1369, 1370, 1367, 1366 ]; type: functional, cell-based; conditions: Homo sapiens
HEK293 [18] = test: cells; conditions: Homo sapiens
HEK293 [19] = test: cells; conditions: Homo sapiens; remark: listed apart in the source
HEK293 [20] = test: cells; conditions: Homo sapiens; remark: listed apart in the source
HEK293 [21] = test: cells; conditions: Homo sapiens; remark: listed apart in the source
HEK293 [22] = test: cells; conditions: Homo sapiens; remark: listed apart in the source
HEK293 [23] = test: cells; conditions: Homo sapiens; remark: listed apart in the source
HEK293 [24] = test: cells; conditions: Homo sapiens; remark: listed apart in the source
HEK293 [25] = test: cells; conditions: Homo sapiens; remark: listed apart in the source
HEK293 [26] = test: cells; conditions: Homo sapiens; remark: listed apart in the source
HEK293 [27] = test: cells; conditions: Homo sapiens; remark: listed apart in the source
Vero [28] = test: host cell cytotoxicity of antiviral hits, dose response, cytotoxicity control for West Nile virus antiviral project, secondary assay (AID 1650); type: functional; conditions: Chlorocebus sabaeus
[29] = THP-1 cell cytotoxicity, dose response, cytotoxicity control for non-replicating M. tuberculosis project (AID 489025); type: functional
[30] = Luminescence Cell-Based Dose Retest to Confirm Inhibitors of Cancer Stem Cells. [Related pubchem assays (depositor defined):AID2717, AID2721]; type: functional; conditions: Homo sapiens
[31] = HepG2 cell cytotoxicity, dose response, cytotoxicity control for non-replicating M. tuberculosis project (AID 489018); type: functional; conditions: Mycobacterium tuberculosis
CAAX prenyl protease 2 = CAAX prenyl protease 2 (Saccharomyces cerevisiae S288c, UniProt Q03530); type: biochemical
CAAX prenyl protease 2, sequence (Q03530 whole entry): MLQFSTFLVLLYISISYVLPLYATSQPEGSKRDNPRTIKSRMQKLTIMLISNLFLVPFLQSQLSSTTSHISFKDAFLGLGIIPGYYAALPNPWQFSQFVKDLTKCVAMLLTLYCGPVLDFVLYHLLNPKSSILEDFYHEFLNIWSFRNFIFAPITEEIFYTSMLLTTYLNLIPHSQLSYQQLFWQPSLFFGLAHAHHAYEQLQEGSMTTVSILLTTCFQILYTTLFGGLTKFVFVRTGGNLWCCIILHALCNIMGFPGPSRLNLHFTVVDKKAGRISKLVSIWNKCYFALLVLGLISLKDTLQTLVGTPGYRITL

CAAX prenyl protease 1 = CAAX prenyl protease 1 (Saccharomyces cerevisiae S288c, UniProt P47154); test: Ste24 protease inhibitors, dose response, biochemical, S. cerevisiae, plate reader, cherry-pick (AID 488815)
CAAX prenyl protease 1, sequence (P47154 whole entry): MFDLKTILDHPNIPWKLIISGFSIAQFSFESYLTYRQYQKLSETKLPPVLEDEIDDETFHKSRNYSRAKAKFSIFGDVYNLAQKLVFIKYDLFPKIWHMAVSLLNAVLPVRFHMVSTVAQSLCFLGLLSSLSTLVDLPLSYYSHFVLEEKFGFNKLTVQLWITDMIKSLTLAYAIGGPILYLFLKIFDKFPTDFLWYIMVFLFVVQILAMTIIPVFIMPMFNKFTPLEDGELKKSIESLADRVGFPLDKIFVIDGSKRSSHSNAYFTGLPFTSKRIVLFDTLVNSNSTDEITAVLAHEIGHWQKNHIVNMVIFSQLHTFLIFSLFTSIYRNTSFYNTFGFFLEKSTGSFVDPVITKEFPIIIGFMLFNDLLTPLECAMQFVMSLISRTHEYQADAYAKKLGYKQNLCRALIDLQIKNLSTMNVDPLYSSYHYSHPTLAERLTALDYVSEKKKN

Vero [32] = test: cells; type: functional, cell-based; conditions: Chlorocebus sabaeus
Vero [33] = test: cells; type: functional; conditions: Chlorocebus sabaeus

Cc1cc2nc(NCCCO)n(CC(=O)c3cc(C(C)(C)C)c(O)c(C(C)(C)C)c3)c2cc1C
> 4 µM (not active): EC50 [2] | EC50 [4] | EC50 [8] | EC50 (HeLa [13]) | EC50 [14] | EC50 (HEK293 [18]) | EC50 (HEK293 [19]) | EC50 (HEK293 [20]) | EC50 (HEK293 [22]) | EC50 (HEK293 [23]) | EC50 (HEK293 [27])
active: EC50 [1] 2.81 µM | EC50 (HEK293 [5]) 0.129 µM | EC50 (Jurkat [9]) 2.57 µM | EC50 (HEK293 [11]) 0.0604 µM | EC50 (HEK293 [24]) 0.672 µM | EC50 (HEK293 [26]) 0.23 µM
inactive: EC50 (MCF7 [3]) > 8 µM | EC50 (MCF7 [7]) > 8 µM | EC50 (MCF7 [10]) > 4 µM | EC50 (Jurkat [12]) > 8 µM | EC50 (PPC-1) > 4 µM | EC50 (HEK293 [15]) > 8 µM | EC50 (HeLa [16]) > 4 µM | EC50 (THP-1) 5.74 µM | EC50 (HEK293 [21]) > 4 µM | EC50 (HEK293 [25]) > 4 µM
> 8 µM (not active): EC50 [6] | EC50 (HEK293 [17])

CCN(CC)CCNC(=O)c1[nH]c2ccc(OCc3ccccc3)cc2c1C
active: CC50 (Vero [28]) 29.4 µM | CC50 [29] 25.6 µM | AC50 [30] 1.18 µM | CC50 [31] 17 µM | AC50 (CAAX prenyl protease 2) 14.1 µM | AC50 (CAAX prenyl protease 1) 4.58 µM | IC50 (Vero [32]) > 25 µM | CC50 (Vero [33]) > 25 µM
